Data: the supplement of paper PMC10307832

Assays:
Test in all cases: relative viability (nuclei count vs DMSO), 5 days (fraction); higher = more cells survive
[1] = compound: CC1=C(C(=O)N2C=CSC2=N1)CCN3CCC(=C(C4=CC=CC=C4)C5=CC=C(C=C5)F)CC3 + Nc1ncn([C@H]2C[C@H](O)[C@@H](CO)O2)c(=O)n1 [Decitabine] (partner 2 µM)
Procedure, shortened: (§1)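 Relative viability equals treated-well nuclei counts divided by vehicle-well nuclei counts. Counts came from 4× images of lung cancer cell lines grown in 1536-well plates for 5 days after pin-tool dosing on the day after seeding. Dosing used one drug alone or a fixed anchor-drug dose plus five library-drug doses (not always all listed) in √10 steps, and values are medians of duplicate plates.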

[2] = compound: CC1=C(C(=O)N2C=CSC2=N1)CCN3CCC(=C(C4=CC=CC=C4)C5=CC=C(C=C5)F)CC3 + Cc1nc(NC(=O)N2CCC[C@H]2C(N)=O)sc1-c1ccnc(C(C)(C)C(F)(F)F)c1 [Alpelisib] (partner 2 µM)
Procedure, shortened: as §1

[3] = compound: CC1=C(C(=O)N2C=CSC2=N1)CCN3CCC(=C(C4=CC=CC=C4)C5=CC=C(C=C5)F)CC3 + C[C@]1(O)C[C@@H](c2nc(-c3ccc4ccc(-c5ccccc5)nc4c3)c3c(N)nccn32)C1 [Linsitinib] (partner 1 µM)
Procedure, shortened: as §1

[4] = compound: CC1=C(C(=O)N2C=CSC2=N1)CCN3CCC(=C(C4=CC=CC=C4)C5=CC=C(C=C5)F)CC3 + CS(=O)(=O)N1CCN(Cc2cc3nc(-c4cccc5[nH]ncc45)nc(N4CCOCC4)c3s2)CC1 [Pictilisib] (partner 1 µM)
Procedure, shortened: as §1

Row | Cell Line | relative viability ([1]; first compound 0.08 µM) | relative viability ([1]; first compound 0.8 µM) | relative viability ([1]; first compound 2.53 µM) | relative viability ([1]; first compound 8 µM) | relative viability ([2]; first compound 0.08 µM) | relative viability ([2]; first compound 0.253 µM) | relative viability ([2]; first compound 0.8 µM) | relative viability ([2]; first compound 2.53 µM) | relative viability ([2]; first compound 8 µM) | relative viability ([3]; first compound 0.08 µM) | relative viability ([3]; first compound 0.253 µM) | relative viability ([3]; first compound 0.8 µM) | relative viability ([3]; first compound 2.53 µM) | relative viability ([3]; first compound 8 µM) | relative viability ([4]; first compound 0.08 µM) | relative viability ([4]; first compound 0.253 µM) | relative viability ([4]; first compound 0.8 µM) | relative viability ([4]; first compound 2.53 µM) | relative viability ([4]; first compound 8 µM) | relative viability ([1]; first compound 0.253 µM)
1 | PC-3 [JPC-3] | 0.826 | 0.932 | 0.845 | 0.846 | 0.959 | 1.1 | 1.07 | 1.08 | 0.899 | 0.884 | 0.914 | 1.01 | 1.04 | 0.893 | 0.78 | 0.746 | 0.72 | 0.765 | 0.711 | 
2 | COR-L 105 | 0.59 | 0.71 | 0.719 | 0.509 | 0.984 | 1.09 | 1.16 | 1.1 | 0.963 | 0.892 | 0.832 | 1.05 | 0.96 | 0.597 | 0.349 | 0.392 | 0.376 | 0.436 | 0.403 | 0.629
3 | HARA | 0.639 | 0.526 | 0.515 | 0.427 | 0.932 | 0.668 | 1.05 | 0.77 | 0.623 | 0.956 | 1.09 | 1.08 | 0.917 | 0.54 | 0.527 | 0.423 | 0.383 | 0.202 | 0.289 | 0.664
4 | LXF-289 | 0.381 | 0.406 | 0.426 | 0.349 | 1.06 | 1.07 | 1.08 | 1.03 | 0.917 | 0.948 | 1.1 | 0.989 | 0.96 | 0.83 | 0.824 | 0.953 | 0.804 | 0.674 | 0.724 | 0.43
5 | NCI-H647 | 0.389 | 0.378 | 0.505 | 0.297 | 1.71 | 1.24 | 0.993 | 1.06 | 0.793 | 1.1 | 0.895 | 1.16 | 1.86 | 0.846 | 0.552 | 0.385 | 0.381 | 0.498 | 0.312 | 0.412
6 | HCC-78 | 0.769 | 0.765 | 0.683 | 0.536 | 0.352 | 0.347 | 0.324 | 0.379 | 0.286 | 0.547 | 0.499 | 0.518 | 0.54 | 0.443 | 0.216 | 0.206 | 0.226 | 0.212 | 0.273 | 0.803
7 | LCLC-97TM1 | 0.234 | 0.216 | 0.253 | 0.181 | 0.184 | 0.265 | 0.226 | 0.304 | 0.148 | 0.185 | 0.161 | 0.19 | 0.197 | 0.164 | 0.208 | 0.297 | 0.217 | 0.182 | 0.167 | 0.252
8 | NCI-H1944 | 0.462 | 0.413 | 0.433 | 0.417 | 0.917 | 0.815 | 0.842 | 0.865 | 0.777 | 1.3 | 1.16 | 1.07 | 1.21 | 1.23 | 0.369 | 0.336 | 0.343 | 0.333 | 0.37 | 0.43
9 | HCC-44 | 1.03 | 0.995 | 1.02 | 0.985 | 0.906 | 0.736 | 0.863 | 0.73 | 0.805 | 0.689 | 0.818 | 0.662 | 0.686 | 0.579 | 0.532 | 0.643 | 0.587 | 0.573 | 0.581 | 1.09
10 | NCI-H1734 | 0.481 | 0.507 | 0.504 | 0.496 | 0.727 | 0.648 | 0.718 | 0.713 | 0.422 | 0.766 | 0.825 | 0.948 | 1.1 | 0.429 | 0.476 | 0.468 | 0.485 | 0.504 | 0.331 | 0.469
11 | NCI-H322M | 0.719 | 0.688 | 0.814 | 0.767 | 0.769 | 0.85 | 0.897 | 0.804 | 0.8 | 0.808 | 0.924 | 0.926 | 1.01 | 0.702 | 0.513 | 0.526 | 0.524 | 0.526 | 0.496 | 0.781
12 | PC-14 | 0.205 | 0.201 | 0.237 | 0.176 | 0.738 | 1.04 | 0.955 | 0.979 | 0.624 | 0.904 | 1.07 | 1.02 | 0.947 | 0.734 | 0.604 | 0.617 | 0.708 | 0.93 | 0.399 | 0.241
13 | NCI-H1395 | 0.718 | 0.652 | 0.688 | 0.674 | 1.09 | 1.33 | 1.05 | 0.958 | 1.11 | 1.21 | 0.982 | 1.08 | 0.891 | 1.07 | 0.772 | 0.641 | 0.531 | 0.572 | 0.629 | 0.782
